Where “and” joins values, the source holds several entries; their conditions need not be identical. Equal values may be shown once.
What was measured:
[1] = test system: patients with PD and constipation; assay: Sleep diary in Stage 2: total sleep time, arm or leg thrashing (RBD); assay type: in vivo, human; details: baseline to maximal dose
Description: FIG. 3 is a chart of total sleep time in relation to squalamine dose. Total sleep time was obtained from the sleep diary by subtracting awake time during the night from total time spent in bed. Total sleep time per night was logged for each patient at baseline, each dosing period and at washout, and the means were determined. The light grey bar represents the baseline value for each cohort at a given dose level and the dark grey bar represents the value for the same cohort at the stated dose of squalamine (ENT-01; Kenterin™). The number of patients represented at each value are: Baseline, 33; 75 mg, 21; 100 mg, 28; 125 mg, 18; 150 mg, 15; 175 mg, 12; 200 mg, 7; 225 mg, 3; 250 mg, 2; washout, 33. P values were as follows: 75 mg, p=0.4; 100 mg, p=0.1; 125 mg, p=0.3; 150 mg, p=0.07; 175 mg, p=0.03; 200 mg, p=0.3; 225 mg, p=0.5; 250 mg, p=0.3; wash-out, p=0.04 (paired t test).
(5) Sleep Diary (participants completed a sleep diary on a daily basis throughout the study. The diaries included time into bed and estimated time to sleep as well as wake time and duration during the night.); […]

[2] = test system: patients with PD and constipation; assay: Phase 2 trial Stage 1: adverse events; assay type: in vivo, human; details: Stage 1, 10 dosed
Excerpt: Tolerability limits included diarrhea or vomiting.

[3] = test system: patients with PD and constipation; assay: Neurological (CNS) symptoms in Stage 2: UPDRS, MMSE, PDHQ, BDI-II; assay type: in vivo, human; details: for patients in whom hallucinations or delusions improved or disappeared during treatment: 6 patients with hallucinations (5) or delusions (1) at baseline
Excerpt: (8) Beck Depression Inventory (BDI-II);
(9) Unified Parkinson's Disease Rating Scale (UPDRS), which consists of 42 items in four subscales (Part I=Non-Motor Aspects of Experiences of Daily Living (nM-EDL) (1.1 cognitive impairment, 1.2 hallucinations and psychosis, 1.3 depressed mood, Part II=Motor Aspects of Experiences of Daily Living (M-EDL), Part III=Motor Examination, and Part IV=Motor Complications;
(10) Mini Mental State Examination (MMSE);
(12) The University of Miami Parkinson's Disease Hallucinations Questionnaire (UM-PDHQ);
Exploratory end-points, in addition to constipation, included for example, (i) depression assessed using the Beck Depression Inventory (BDI-II) (Steer et al. 2000) and Unified Parkinson's Disease Rating Scale (UPDRS); (ii) cognition assessed using the Mini Mental State Examination (MMSE) (Palsteia et al. 2018), Unified Parkinson's Disease Rating Scale (UPDRS), and Trail Making Test (TMT); (iii) sleep and REM-behavior disorder (RBI)) using a daily sleep diary, I-Button Temperature Assessment, a REM sleep behavior disorder (RBD) questionnaire (RBDQ) (Stiasny-Kolster et al. 2007), and the UPDRS; (iv) hallucinations assessed using the PD hallucinations questionnaire (PDHQ) (Papapetropoulos et al. 2008), the UPDRS, and direct questioning; (v) fatigue using the Parkinson's Disease Fatigue Scale (PFS-16) and the UPDRS; (vi) motor functions using the UPDRS; and (vii) non-motor functions using the UPDRS.
Assessments were made at baseline and at the end of the fixed dose and washout periods. Circadian system status was evaluated by continuously monitoring wrist skin temperature (Thermochron iButton DS1921H; Maxim, Dallas) following published procedures (Sarabia et al. 2008).
An exploratory analysis was done with respect to the sleep data, the body temperature data, mood, fatigue, hallucinations, cognition and other motor and non-motor symptoms of PD. Continuous measurements within a subject were compared with a paired t-test and continuous measurements between subject groups were compared with a two-group t-test. Categorical data were compared with a chi-squared test or a Fisher's exact test if the expected cell counts are too small for a chi-squared test.

[4] = test system: patients with PD and constipation; assay: Systolic blood pressure in Stage 2 of the clinical study; assay type: in vivo, human; details: for change of blood pressure in subjects with high blood pressure / change of blood pressure in subjects with low blood pressure: Stage 2, post medication / fixed dose versus baseline
Excerpt: Subjects in Stage 2 of the clinical study described in Example 1 had their systolic blood pressure measured at various points during the clinical study. […]

[5] = set-up: species or system dogs; details: dog, in vivo
[6] = Stage 2, individual subjects, one line per subject

## CC(C)[C@@H](CC[C@@H](C)[C@H]1CC[C@H]2[C@@H]3[C@H](O)C[C@H]4C[C@@H](NCCCNCCCCN)CC[C@]4(C)[C@H]3CC[C@]12C)OS(=O)(=O)O (single isomer, unassigned) [ENT-01, squalamine]
[1]
  improvement of arm or leg thrashing frequency: 100%
[2]
  Abdominal pain, mild: 2(20) n, %
  Abdominal pain, moderate: 3(30) n, %
  Diarrhea, mild: 1(10) n, %
  Diarrhea, moderate: 3(30) n, %
  Flatulence, mild: 2(20) n, %
  Headache, mild: 1(10) n, %
  Vomiting, mild: 1(10) n, %
[2]; unrelated to ENT-01
  Blood in urine, mild: 1(10) n, %
  Loss of appetite, mild: 1(10) n, %
[3]; 1 patient
  time without return of hallucinations/delusions after discontinuation: 4 weeks
[3]
  patients in whom hallucinations or delusions improved or disappeared during treatment: five
[3]; listed as aminosterol
  patients in whom hallucinations or delusions improved or disappeared during treatment: five and 5 of 6
[3]; listed as squalamine (ENT-01)
  patients in whom hallucinations or delusions improved or disappeared during treatment: 5 of 6
[3]; another patient
  time without return of hallucinations/delusions after discontinuation: 2 weeks
[4]; [6]
  BP at FD-V4 pre dose: 122 and 147 and 144 and 154 and 115 and 110 (2×) and 138 and 130 and 121 and 113
  BP at V4 + 2 hrs post dose: 113 and 163 and 138 and 105 and 11 and 132 (2×) and 126 and 131 and 115
[4]; Stage 2, mean of series, initial mean 133.4219, p=0.011638
  final BP- v3, mean: 126.3
[4]
  change of blood pressure in subjects with high blood pressure: decreased blood pressure
  change of blood pressure in subjects with low blood pressure: increased blood pressure
[4]; listed as aminosterol
  change of blood pressure in subjects with high blood pressure: lower blood pressure
  change of blood pressure in subjects with low blood pressure: higher blood pressure
[5]
  oral bioavailability: limited bioavailability

Source: patent US20200129528A1, “METHODS FOR TREATING BLOOD PRESSURE CONDITIONS USING AMINOSTEROL COMPOSITIONS” (Enterin, Inc., priority 2018, published 2020)
